Consider two compounds from patent US12129312B2, “Peptide compound, application thereof and composition containing same” (priority 2017, dated 2024).

The data set in a line: Plasma stability, human plasma. The format is in vitro ADME. The conditions noted are these: 37° C., time points 0 minute, 1, 2 and 4 hours, LC-MS/MS, read-out: Human plasma (T1/2 (h)) (converted). The protocol:
1. Preparation of 50 mM Phosphate Buffer (50 mM Sodium Phosphate and 70 mM NaCl):
5.750 g of Na2HPO4, 1.141 g of NaH2PO4 and 4.095 g of NaCl (Shanghai Titan) were weighed and dissolved in 1000 mL of ultrapure water and the pH was adjusted to 7.4. The prepared phosphate buffer was stored in the refrigerator at 4° C., valid for one week.
2. Preparation of Compound Stock Solution:
1) 5 mg/mL test compound: 5 mg of compound was weighed and dissolved in 1 mL of DMSO.
2) 20 mM control: 2.728 mg of nococaine was dissolved in 0.5 mL of DMSO. 3.878 mg of fenfluramide was dissolved in 0.5 mL of DMSO (Amresco).
3. Preparation of Experimental Plasma:
The frozen plasma (human: Shanghai ChemPartner, Rat, Mouse: Shanghai Xipuer-Beikai, Dog, Monkey: Suzhou Xishan Zhongke) was taken out from the −80° C. refrigerator, immediately placed in a 37° C. water bath, and thawn with gentle shaking. The thawed plasma was poured into a centrifuge tube, and centrifuged at 3000 rpm for 8 minutes. The supernatant was collected for the experiment. The pH of the plasma was measured with a pH meter (METTLER TOLEDO), and only the plasma with a pH between 7.4 and 8 was used for the experiment. The plasma was placed on an ice bath for later use.
4. Preparation of the Dosing Solution:
1) 125 μg/mL test compound solution: 5 μL of 5 mg/mL test compound (see step 2) was added to 195 μL DMSO; 500 μM control solution: 20 mM control stock solution (see step 2) was added to 195 μL DMSO.
2) 0.5% BSA phosphate buffer solution: 0.05 g of BSA was added to 10 mL of phosphate buffer (see step 1).
3) 5 μg/mL test compound dosing solution: 40 μL of 125 μg/mL test compound solution was added to 960 μL of 0.5% BSA phosphate buffer solution, shaken and mixed evenly, and the dosing solution was placed in a 37° C. water bath and preheated for 5 minutes.
20 μM control dosing solution: 40 μL of 500 μM control solution was added to 960 μL of 0.5% BSA phosphate buffer solution, shaken and mixed evenly, and the dosing solution was placed in a 37° C. water bath and preheated for 5 minutes.
5. 10 μL of 5 μg/mL test compound and 20 μM control solution were added to the wells of the 96-well plate set at different time points (0 minute, 1 hour, 2 hours and 4 hours). The number of duplicate samples was 3.
6. 500 μL of ACN (IS) containing 5% FA was added to the wells set at 0 minute. 90 μL of plasma was then added thereto, mixed evenly, sealed with the film and stored at 4° C. (the number of duplicates was 3).
7. 90 μL of plasma was added to the wells set at 1 hour, 2 hours and 4 hours (the number of replicates was 3), followed by timing (the final concentration of the test compound was 500 ng/mL, and that of the control was 2 μM).
9. All samples (0 minutes, 1 hour, 2 hours, and 4 hours) at different time points on the 96-well plate were placed on a shaker (IKA, MTS 2/4) and shaken at 600 rpm for 60 minutes. The samples were then centrifuged for 15 minutes on a centrifuge machine (Thermo Multifuge×3R) at 5594×g.
10. 150 μL of the supernatant was taken out from the centrifuged sample and sent to LC-MS/MS for analysis (conventional peptide LC-MS/MS analysis).

Square brackets hold non-standard residues; d marks the D form. Peptide text beside a SMILES is read from it. * marks the point of attachment. Hydrocinnamoyl = O=C(CCc1ccccc1)*; Tic = O=C(O)[C@@H]1Cc2ccccc2CN1; NMeL = CN[C@@H](CC(C)C)C(=O)O

Turning to `CC(C)C[C@H](NC(=O)[C@H](Cc1ccccc1)NC(=O)[C@H](N)Cc1ccc(O)cc1)C(=O)N1CCC[C@H]1C(=O)N[C@H](CO)C(=O)N[C@@H](CCC(N)=O)C(=O)N[C@@H](Cc1ccccc1)C(=O)N[C@H](C)C(=O)N1Cc2ccccc2C[C@H]1C(=O)N[C@@H](CO)C(=O)O` [YW-3, (D-Tyr)-Phe-Leu-Pro-(D-Ser)-Gln-Phe-(D-Ala)-Tic-Ser, reference compound] (H-[dY]FLP[dS]QF[dA][Tic]S-OH), the half-life at 500 ng/mL was 12.8 h. Consider `CC(C)C[C@@H](C(=O)N1CCC[C@H]1C(=O)N[C@H](CO)C(=O)N[C@@H](CCC(N)=O)C(=O)N[C@@H](Cc1ccccc1)C(=O)N[C@H](C)C(=O)N1Cc2ccccc2C[C@H]1C(=O)N[C@@H](CO)C(=O)O)N(C)C(=O)[C@H](Cc1ccccc1)NC(=O)[C@@H](Cc1ccc(O)cc1)NC(=O)CCc1ccccc1` [YW-111, 3-phenylpropanoyl-(D-Tyr)-Phe-(NMe-Leu)-Pro-(D-Ser)-Gln-Phe-(D-Ala)-Tic-Ser-OH] (Hydrocinnamoyl-[dY]F[NMeL]P[dS]QF[dA][Tic]S-OH), for which the half-life at 500 ng/mL was 71 h.
